pIC50: −log10 of the molar value. Where “and” joins values, the source holds several entries; their conditions need not be identical. Equal entries are not always repeated. Entries after “also recorded” stand apart in the source; their conditions may differ. Where two headings read alike, the source gives them in different places.
Tests used:
HOIP [1] = target: T1, HOIP (Homo sapiens, UniProt Q96EP0); assay: MALDI-TOF E2/E3 ligase assay (mono-ubiquitin consumption), UBE1/UBE2L3/HOIP; assay type: biochemical; details: for remaining activity at 10 µM: read-out: Residual Activity (%), UBE1/UBE2L3/HOIP
T1 construct: HOIP (697-1072) DU22629; GST (cleaved yes); host or cells: E. coli BL21
T1 sequence (Q96EP0 697-1072): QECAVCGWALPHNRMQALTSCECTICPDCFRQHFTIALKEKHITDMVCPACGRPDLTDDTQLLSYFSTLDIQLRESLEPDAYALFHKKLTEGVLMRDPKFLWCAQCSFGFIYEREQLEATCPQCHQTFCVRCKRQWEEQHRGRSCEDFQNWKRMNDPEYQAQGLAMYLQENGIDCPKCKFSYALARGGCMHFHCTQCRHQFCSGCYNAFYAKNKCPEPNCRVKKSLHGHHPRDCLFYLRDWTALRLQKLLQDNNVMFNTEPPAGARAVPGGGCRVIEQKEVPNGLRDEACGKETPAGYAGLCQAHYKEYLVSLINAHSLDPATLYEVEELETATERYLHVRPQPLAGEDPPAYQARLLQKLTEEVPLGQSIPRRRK

MDM2 = MDM2 (Homo sapiens, UniProt Q00987); assay: MALDI-TOF E2/E3 ligase assay (mono-ubiquitin consumption), UBE1/UBE2D1/MDM2; assay type: biochemical; details: for remaining activity at 10 µM: read-out: Residual Activity (%), UBE1/UBE2D1/MDM2; for Inhibition effect on MDM2 with β-mercaptoethanol (BME) present: initial presence of BME in the MDM2 preparation
MDM2, sequence (Q00987 whole entry): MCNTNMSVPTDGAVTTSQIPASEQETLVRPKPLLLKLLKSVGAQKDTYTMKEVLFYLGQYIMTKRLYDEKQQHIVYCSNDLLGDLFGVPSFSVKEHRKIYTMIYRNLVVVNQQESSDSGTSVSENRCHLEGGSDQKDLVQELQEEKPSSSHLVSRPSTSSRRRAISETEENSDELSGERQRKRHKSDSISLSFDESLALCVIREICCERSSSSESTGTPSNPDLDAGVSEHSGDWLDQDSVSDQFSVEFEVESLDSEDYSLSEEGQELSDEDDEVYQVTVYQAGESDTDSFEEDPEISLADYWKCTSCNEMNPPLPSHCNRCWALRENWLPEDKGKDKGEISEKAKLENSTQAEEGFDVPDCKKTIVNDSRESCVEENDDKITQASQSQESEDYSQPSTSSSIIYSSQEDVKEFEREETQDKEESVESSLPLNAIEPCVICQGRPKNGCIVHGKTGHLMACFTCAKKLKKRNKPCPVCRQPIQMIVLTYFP

ITCH [2] = target: T2, ITCH (Homo sapiens, UniProt Q96J02); assay: MALDI-TOF E2/E3 ligase assay (mono-ubiquitin consumption), UBE1/UBE2D1/ITCH; assay type: biochemical; details: for remaining activity at 10 µM: read-out: Residual Activity (%), UBE1/UBE2D1/ITCH
T2 construct: ITCH Q96J02 - GST full length; host or cells: E. coli BL21
T2 sequence (Q96J02 whole entry): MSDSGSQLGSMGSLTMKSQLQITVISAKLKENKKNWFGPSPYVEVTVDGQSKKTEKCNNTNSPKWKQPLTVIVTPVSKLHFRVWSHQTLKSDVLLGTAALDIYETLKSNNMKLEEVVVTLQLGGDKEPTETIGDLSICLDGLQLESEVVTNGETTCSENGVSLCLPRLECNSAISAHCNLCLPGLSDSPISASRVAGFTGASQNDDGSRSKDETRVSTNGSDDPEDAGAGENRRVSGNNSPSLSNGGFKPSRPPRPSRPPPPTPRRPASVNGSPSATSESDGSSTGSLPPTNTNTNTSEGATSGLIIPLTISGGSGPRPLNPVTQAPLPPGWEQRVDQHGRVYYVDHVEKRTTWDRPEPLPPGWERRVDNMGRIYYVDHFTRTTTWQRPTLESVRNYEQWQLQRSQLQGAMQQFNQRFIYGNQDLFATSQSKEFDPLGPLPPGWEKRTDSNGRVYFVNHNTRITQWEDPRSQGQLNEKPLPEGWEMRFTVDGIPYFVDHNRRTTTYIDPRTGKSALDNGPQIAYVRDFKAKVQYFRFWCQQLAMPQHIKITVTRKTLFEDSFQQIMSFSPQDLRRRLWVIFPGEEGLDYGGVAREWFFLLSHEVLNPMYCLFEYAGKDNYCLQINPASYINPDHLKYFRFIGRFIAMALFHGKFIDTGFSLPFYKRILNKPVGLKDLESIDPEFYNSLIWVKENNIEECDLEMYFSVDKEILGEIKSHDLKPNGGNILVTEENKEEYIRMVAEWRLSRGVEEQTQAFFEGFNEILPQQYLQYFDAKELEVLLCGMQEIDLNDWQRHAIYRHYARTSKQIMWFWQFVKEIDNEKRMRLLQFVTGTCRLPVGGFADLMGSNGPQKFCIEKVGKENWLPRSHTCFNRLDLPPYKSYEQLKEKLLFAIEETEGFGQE

HOIP [3] = target: T1, HOIP; assay type: biochemical
UBE2L3 = target: T3, UBE2L3 (Homo sapiens, UniProt P68036); assay: MALDI-TOF MS of intact E2 protein incubated with inhibitor (covalent modification); assay type: binding; details: UBE2L3 3 µM, inhibitor 100 µM, 30 min, room temperature
T3 construct: UBE2L3 P68036 UbcH7 - full length; 6His (cleaved yes); host or cells: E. coli BL21 DE3 codon plus
T3 sequence (P68036 whole entry): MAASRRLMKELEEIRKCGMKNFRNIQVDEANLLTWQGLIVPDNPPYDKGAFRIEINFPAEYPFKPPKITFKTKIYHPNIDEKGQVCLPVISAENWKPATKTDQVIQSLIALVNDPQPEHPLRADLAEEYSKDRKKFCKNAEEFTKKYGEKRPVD

ITCH [4] = system: ITCH; set-up: method as in Rossi et al., 2014; details: irreversible block; ref Rossi et al., 2014; cited from earlier work
[5] = HTS single point, 10 μM compound
[6] = UBE1/UBE2L3/HOIP, compounds pre-incubated 30 min, then ubiquitin 30 or 40 min, four-parameter fit, read-out: IC50 against HOIP
[7] = UBE1/UBE2D1/MDM2, compounds pre-incubated 30 min, then ubiquitin 30 or 40 min, four-parameter fit, read-out: IC50 against MDM2
[8] = UBE1/UBE2D1/ITCH, compounds pre-incubated 30 min, then ubiquitin 30 or 40 min, four-parameter fit, read-out: IC50 against ITCH

For `O=c1c2ccccc2[se]n1-c1ccccc1` [ebselen], the remaining activity at 10 µM (HOIP [1]; [5]) was 36.2%.

In the case of `OC(Cn1cncn1)(Cn1cncn1)c1ccc(F)cc1F` [fluconazole], the remaining activity at 10 µM (HOIP [1]; [5]) was 46.4%.

With `CN1C(=O)[C@]23CC4=CC=C[C@H](O)[C@H]4N2C(=O)[C@@]1(CO)SS3` [Gliotoxin] the “Hill Slope Values for calculated IC50s, HOIP” value (HOIP [1]) was 2.01, the pIC50 (HOIP [1]) was 5.55 and the “Hill Slope Values for calculated IC50s, MDM2” value (MDM2) was 2.18. For the same compound, the pIC50 (MDM2) was 6.30, the “Hill Slope Values for calculated IC50s, ITCH” value (ITCH [2]) was 5.12 and the pIC50 (ITCH [2]) was 4.52.

For `C=C(CC)C(=O)c1ccc(OCC(=O)O)c(Cl)c1Cl` [ethacrynic acid], the remaining activity at 10 µM (MDM2; [5]) was 53.9% and the remaining activity at 10 µM (ITCH [2]; [5]) was 29.5%.

Work on `CCCCN1CCCCC1C(=O)Nc1c(C)cccc1C` (centres unmarked) [bupivacaine] yielded a remaining activity at 10 µM (HOIP [1]; [5]) of 66.2%.

With `COc1ccc(C2=N[C@@H](c3ccc(Cl)cc3)[C@@H](c3ccc(Cl)cc3)N2C(=O)N2CCNC(=O)C2)c(OC(C)C)c1` [Nutlin3A, nutlin-3A] the “Inhibitory activity toward HOIP in IC50 curves (in words)” value (HOIP [1]; 0–100 μM) was “did not show any inhibitory activity”, the “IC50 against HOIP” value (HOIP [1]; UBE1/UBE2L3/HOIP, compounds pre-incubated 30 min, then ubiquitin 30 or 40 min, four-parameter fit) was “ambiguous” and the “Inhibitory activity toward ITCH in IC50 curves (in words)” value (ITCH [2]; 0–100 μM) was “did not show any inhibitory activity”. The “IC50 against ITCH” value (ITCH [2]; UBE1/UBE2D1/ITCH, compounds pre-incubated 30 min, then ubiquitin 30 or 40 min, four-parameter fit) was “ambiguous”.

For `N[C@@H](C(=O)N[C@@H]1C(=O)N2C(C(=O)O)=C(CSc3c[nH]nn3)CS[C@H]12)c1ccc(O)cc1` [cefatrizine], the remaining activity at 10 µM (HOIP [1]; [5]) was 49%.

Work on `Oc1c(Cl)cc(Cl)c(Cl)c1Cc1c(O)c(Cl)cc(Cl)c1Cl` [hexachlorophene] yielded a remaining activity at 10 µM (MDM2) of 52.4% and a remaining activity at 10 µM (ITCH [2]) of 22.2%.

`C[C@H]1[C@H](NC(=O)/C(=N\OC(C)(C)C(=O)O)c2csc(N)n2)C(=O)N1S(=O)(=O)O` [aztreonam] gave a remaining activity at 10 µM (MDM2; [5]) of 56.7%.

Compound `Cc1[nH]cnc1CN1CCc2c(c3ccccc3n2C)C1=O` [alosetron] has a remaining activity at 10 µM (ITCH [2]; [5]) of 58.2%.

Work on `Cc1ccnc2c1NC(=O)c1cccnc1N2C1CC1` [nevirapine] yielded a remaining activity at 10 µM (HOIP [1]; [5]) of 54.8%.

`O=C(NCCN1CCOCC1)c1ccc(Cl)cc1` [moclobemide] gave a remaining activity at 10 µM (HOIP [1]; [5]) of 25.9%.

`COc1ccc(CCN)cc1OC` [2-(3,4-dimethoxyphenyl) ethanamine] gave a remaining activity at 10 µM (HOIP [1]) of 68.2%.

In the case of `Cn1c(CCCC(=O)O)nc2cc(N(CCCl)CCCl)ccc21` [bendamustine], the pIC50 (HOIP [1]; IC50 against HOIP, UBE1/UBE2L3/HOIP, compounds pre-incubated 30 min, then ubiquitin 30 or 40 min, four-parameter fit) was 5.19 and 5.20, the “Fold higher activity against HOIP than against ITCH” value (HOIP [1]; from IC50 values) was 12 fold and the “Fold higher activity against HOIP than against MDM2” value (HOIP [1]; from IC50 values) was 18 fold. The remaining activity at 10 µM (HOIP [1]) was 6.3%, the “Inhibition of HOIP when paired with UBE2D1 (in words)” value (HOIP [3]) was “inhibits HOIP independently from the E2 in use; also recorded: retained its inhibition power” and the pIC50 (MDM2) was 3.94. For the same compound, the “Inhibition of MDM2 at 10 μM (in words)” value (MDM2) was “did not significantly affect”, the pIC50 (ITCH [2]) was 4.11 and the “Inhibition of ITCH at 10 μM (in words)” value (ITCH [2]) was “did not significantly affect”.

With `N#CSc1cc(SC#N)c(N)nc1N` [PR619] the “Hill Slope Values for calculated IC50s, HOIP” value (HOIP [1]; Table S4) was 7.8, the pIC50 (HOIP [1]; [6]) was 6.70 and the “Hill Slope Values for calculated IC50s, MDM2” value (MDM2; Table S4) was 1.89. The pIC50 (MDM2; [7]) was 6.22, the “Covalent modification of E2 enzyme UBE2L3 (in words)” value (UBE2L3) was “extensively modified UBE2L3; also recorded: covalently modified E2 enzymes” and the “Hill Slope Values for calculated IC50s, ITCH” value (ITCH [2]; Table S4) was 3.14. It also gave a pIC50 (ITCH [2]; [8]) of 6.40.

`CCOc1nc2cccc(C(=O)OC(C)OC(=O)OC3CCCCC3)c2n1Cc1ccc(-c2ccccc2-c2nnn[nH]2)cc1` (centres unmarked) [candesartan cilexetil] showed an inhibition at 10 µM (MDM2; [5]) greater than 50%, a remaining activity at 10 µM (MDM2; [5]) of 48.6% and a pIC50 (MDM2; [7]) of 5.06.

Compound `NC(=O)c1cnccn1` [pyrazinamide] has a remaining activity at 10 µM (HOIP [1]; [5]) of 49.3%.

With `Cc1ccc(S(=O)(=O)/C=C/C#N)cc1` [BAY117082] the “Hill Slope Values for calculated IC50s, HOIP” value (HOIP [1]; Table S4) was 2.48, the pIC50 (HOIP [1]; [6]) was 5.54 and the “Hill Slope Values for calculated IC50s, MDM2” value (MDM2; Table S4) was 3.5. The pIC50 (MDM2; [7]) was 5.62, the “Inhibition effect on MDM2 with β-mercaptoethanol (BME) present” value (MDM2) was “suppressed” and the “Covalent modification of E2 enzyme UBE2L3 (in words)” value (UBE2L3) was “covalently modified E2 enzymes”. For the same compound, the “Mass shift of UBE2L3 after incubation with inhibitor” value (UBE2L3) was 153 Da, the “Hill Slope Values for calculated IC50s, ITCH” value (ITCH [2]; Table S4) was 1.23 and the pIC50 (ITCH [2]; [8]) was 4.59.

In the case of `CN(C)CCCN1c2ccccc2CCc2ccc(Cl)cc21` [Clomipramine], the “Inhibition of HOIP at 10 μM (in words)” value (HOIP [1]; 10 μM) is given as “did not inhibit”, the “Concentration achieving complete inhibition of ITCH ubiquitin transthiolation” value (ITCH [4]) is given as 0.8 mM and the “Inhibition of MDM2 at 10 μM (in words)” value (MDM2) is given as “did not inhibit”. For the same compound, the “Inhibition of ITCH at 10 μM (in words)” value (ITCH [2]) was “did not inhibit” and the pIC50 (ITCH [2]; dose-response curve, final concentrations between 2mM and 7 µM, read-out: IC50 against ITCH) was 3.30 and ~3.30.

Compound `Oc1ccc(/C=C/c2cc(O)cc(O)c2)cc1` [resveratrol] has a remaining activity at 10 µM (HOIP [1]; [5]) of 62.2%.

In the case of `CCOC(=O)c1ccc(N2NC(=O)/C(=C/c3ccc([N+](=O)[O-])o3)C2=O)cc1` [PYR41], the “Hill Slope Values for calculated IC50s, HOIP” value (HOIP [1]; Table S4) was 3.73, the pIC50 (HOIP [1]; [6]) was 5.24 and the “Hill Slope Values for calculated IC50s, MDM2” value (MDM2; Table S4) was 2.23. The pIC50 (MDM2; [7]) was 5.51, the “Inhibition effect on MDM2 with β-mercaptoethanol (BME) present” value (MDM2) was “suppressed” and the “Hill Slope Values for calculated IC50s, ITCH” value (ITCH [2]; Table S4) was 1.22. For the same compound, the pIC50 (ITCH [2]; [8]) was 4.95.
